Assay results reported in patent US20050106558A1, “Library of modified structural genes or capsid modified particles useful for the identification of viral clones with desired cell tropism” (priority 2001, published 2005).

Columns and labels:
M-07e cells = test: Transduction efficiency of rAAV-GFP clones on M-07e cells (FACS), with or without competitors; format: cell-based, human
Protocol: Cells were seeded in 96 or 24 well plates (Nunc, Wiesbaden, Germany) and infected with rAAV-GFP clones, harvested 48 hrs p.i., washed and resuspended in 1 ml PBS. The percentage of GFP expressing cells was determined by flow cytometry with a Coulter Epics XL-MCL (Beckman Coulter, Krefeld, Germany). A minimum of 5000 cells were analyzed for each sample. Infectivity of the retargeted mutants was determined in the presence or absence of various concentrations of GRGDTP or GRGES peptides (Bachem, Bubendorf, Swiss) or 5 I.U./[II soluble heparin (Braun, Melsungen, Germany).
The selected capsid mutants were tested for their ability to transduce M-07e cells (FIG. 5a). At a genomic particle/cell ratio of 2×10^4, the mutants rAAV-M07A and rAAV-M07T transduced 50±2.5% and 47±2.7% of M-07e cells, respectively, representing a 100 and 94 fold increase in comparison to rAAV-wt transduction efficiency (0.5±0.01%). In contrast, rAAV-MecA and rAAV-MecB transduced M-07e cells with an efficiency of only 8.1±1.5% and 16±2%. The vector rAAV-L14, carrying an RGD motif inserted at position 587 (Girod A et al (1999) supra), was also compared. […] This highlighted the advantage of the combinatorial approach when compared with the simple insertion of an exogenous sequence.
We then examined whether the transduction of M-07e cells by rAAV-M07A and rAAV-M07T vectors was specifically mediated by the amino acids inserted at position 587. In the capsid of wt AAV, the region around position 587 is involved in the binding to heparan sulfate proteoglycan (HSPG) (Nicklin S A et al. (2001) Mol. Ther. 4, 174-81; Wu P. et al. (2000) J. Virol. 74, 8635-47), the primary receptor of AAV-2 (Summerford C and Samulski J (1998) J. Virol. 72, 1438-45). Pre-incubation with soluble heparin, an HSPG analogue and competitor, inhibited transduction of M-07e cells by rAAV-MecB but not by rAAV-M07A, rAAV-M07T and rAAV-MecA (FIG. 5a). […] This effect was concentration-dependent (FIG. 5b). […]

[1] = target: integrin receptor expressed on the surface of the target cells; test: cell-based or functional assay

## GRGES
M-07e cells; M-07e cells, 450 μM
  effect of inactive GRGES peptide on transduction: no effect

## RGDS
M-07e cells; M07e cells incubated with 100 uM peptide prior to infection
  reduction of transduction efficiencies by competing RGDS peptide: more than 50%

## RGES
M-07e cells; M07e cells
  effect of RGES peptide pre-incubation on infection: failed to inhibit

## rAAV-M07A (RGDAVGV insertion) (from UniProt P03135 1-587; P03135 588-735)
[1]
  reduction of M07e cell transduction after incubation of the cells with 100 uM RGDS peptide: > 50%

## rAAV-M07T (RGDTPTS insertion) (from UniProt P03135 1-587; P03135 588-735)
[1]
  reduction of M07e cell transduction after incubation of the cells with 100 uM RGDS peptide: > 50%
